Entries after “also recorded” stand apart in the source; their conditions may differ.
Columns and labels:
[1] = Plasma remogliflozin after oral compressed IR tablet of remogliflozin etabonate; type: in vivo; conditions: 350 mg remogliflozin etabonate, after 3 hrs
From the text: Oral dosage forms according to the invention are typically tablets or capsules. Tablets can be obtained by direct compression of the mixed components of a dosage form, including an effective dosage amount of remogliflozin etabonate, and selected excipients, like cellulose derivatives, metacrylates, chitosan, carboxymethylstarch (CMS), or mixtures thereof. For example, a compressed tablet according to the invention, can be prepared by granulating remogliflozin etabonate, microcrystalline cellulose and croscarmellose sodium with a water and povidone solution. The resulting granules are dried, milled, and then blended with mannitol, microcrystalline cellulose, and croscarmellose. The blend is lubricated with magnesium stearate and compressed. […] Indeed, Tmax for an IR remogliflozin etabonate oral dosage form according to the invention occurs at 1 hour, or less, following ingestion of the dosage form by a subject.

TIA mice = experiment: TIA mouse model of primary sclerosing cholangitis, liver histology after remogliflozin etabonate-formulated diet; type: in vivo
From the text: The following Examples describe the utilization of a murine model of […] (“PSC”) to assess the effectiveness of a treatment regimen based on the oral administration of remogliflozin etabonate. The murine PSC model is based on mice that are deficient for the expression of tumor necrosis factor alpha (“TNFα”), interleukin 10 (“IL-10”), and activation-induced cytidine deaminase (“AICDA”). As the mice are deficient in TNF, IL-10, and AICDA, they are referred to, herein, as “TIA” mice.
Moreover, as AICDA is required for immunoglobulin (“Ig”) class switching, TIA mice lack IgG and IgA, a phenotype analogous to humans with hyper-IgM syndrome. Therefore, with the combination of AICDA deficiency with the risk factors associated with TNFα and IL-10 deficiencies, TIA mice also develop liver and biliary inflammation reminiscent of PSC symptoms in humans. Accordingly, the TIA model is useful for investigating mechanisms that act early in PSC pathogenesis, as well as treatments that can prevent progression to PSC.
Example 1. Orally-administered remogliflozin etabonate reduces inflammatory cell infiltration, bile ductular proliferation, and interface hepatitis in TIA mice. TIA mice were created by first breeding TNFα knock out (“KO”) C57BL/6 mice, (strain B6.129S-Tnf^tm1Gkl/J, stock #005540, Jackson Laboratories, Bar Harbor, Me.) with IL-10 KO mice (strain B10.129P2(B6)-IL10^tm1Cgn/J, Stock No. 002251, Jackson Laboratories) to produce a population of mice that were deficient in TNFα and IL-10. Because mice with a TNFα−/− and IL10−/− genotype spontaneously develop inflammatory bowel disease (“IBD”) (Hale 2012), a condition associated with poor breeding success (Nagy 2016), the mice needed for further breeding to generate an AICDA population, were generated by breeding offspring with a TNFα and IL10+/− genotype with AICDA−/− mice, which were obtained from Dr. Tasuku Honjo (Muramatsu 2000)), to produce a population of TNFα−/−, IL10−/−, and AICDA+/−(“TI-hetA”) males and females. In turn, TI-hetA pairs were bred to generate populations that were 25% TIA mice, and 50% non-colitis-susceptible TI-hetA littermates that could be used as control populations. All populations were exposed to the same environment from birth. The mice were housed in polycarbonate micro-isolator cages, in individually ventilated racks, under barrier conditions that excluded all known pathogens, including Helicobacter pylori and Norovirus. Mice had ad libitum access to water, and to a standard diet (PicoLab Mouse Diet 20/5058, LabDiet, St. Louis, Mo., USA).
At four (4) weeks of age, TIA (40) and TI-hetA (22) mice were randomized into experimental groups that received either a standard diet (20 TIA and 12 het), or a standard diet formulated 0.03% remogliflozin etabonate (20 TIA and 10 het) (Avolynt Inc., USA). The mice were maintained on this diet for seven (7) weeks. Body weights were obtained three (3) times, weekly, to assess the general health of mice, and to track the development of inflammatory bowel disease (IBD). Glycosuria in the experimental groups was assessed by applying freshly voided urine directly to the glucose test patch on an Accutest® URS-10 urinary reagent test strips (Jant Pharmaceutical Corp., Encino, Calif., USA). Mice were humanely euthanized before reaching the experimental endpoint, of eleven (11) weeks of age, if they lost >15% body weight, or developed rectal prolapse.
To characterize biliary lesions in TIA mice at the end of the 7 week treatment period, liver tissue was obtained from the remogliflozin-treated, and untreated groups, for histologic examination. The excised liver tissue was fixed in Carnoy's fixative solution, and processed into paraffin blocks. The paraffin blocks were sectioned, and stained with Hematoxylin and eosin (H&E) for pathologic analysis. The H&E-stained sections were scored by an American Board of Pathology-certified pathologist. […]

[2] = TIA mice, 0.03% in diet for 7 weeks, vs untreated TIA mice, 11 weeks

Compound: CCOC(=O)OC[C@H]1O[C@@H](Oc2nn(C(C)C)c(C)c2Cc2ccc(OC(C)C)cc2)[C@H](O)[C@@H](O)[C@@H]1O [remogliflozin etabonate, 5-methyl-4-[4-(1-methylethoxy)benzyl]-1-(1-methylethyl)-1H-pyrazol-3-yl 6-O-(ethoxycarbonyl)-β-D-glucopyranoside]
- remogliflozin plasma concentration after clearance [1]: 40 ng/mL
- inflammation at the interface between the hepatic parenchyma and the portal tracts (interface hepatitis) (TIA mice; [2]): reduces; also recorded: less inflammation at the interface between the hepatic parenchyma and the portal tracts
- proliferation of bile ductules (bile ductular proliferation) (TIA mice; [2]): reduces; also recorded: less proliferation of bile ductiles
- proliferation of bile ductules (bile ductular proliferation) (TIA mice; TIA mice, 0.03% in diet for 7 weeks, vs untreated TIA mice, 11 weeks, listed as Remo): decrease in proliferation of bile ductules
- development and progression of liver and biliary disease (TIA mice; TIA mice, 0.03% remogliflozin etabonate in diet for 7 weeks from 4 weeks of age, vs standard diet, H&E liver sections at 11 weeks): markedly less development and progression of liver and biliary disease
- number of TIA mice that required early euthanasia, Remo group versus control group (TIA mice; TIA mice, 7-week study, euthanasia on >15% body weight loss or rectal prolapse): no statistical difference
- inflammatory cell infiltration (TIA mice; TIA mice, orally administered in diet): reduces
- periportal and biliary inflammation (TIA mice; TIA mouse at 11 weeks, 0.03% Remo in chow from 4 weeks of age, H&E liver section): decrease in periportal and biliary inflammation

From patent US20210322324A1, “METHOD FOR TREATING PRIMARY SCLEROSING CHOLANGITIS” (AVOLYNT, priority 2018, published 2021)
